# In US10479786B2, “Protein kinase inhibitors” (Princeton Drug Discovery Inc, priority 2016, dated 2019):
# What was measured:
# PDGFRβ = biological target: T1, PDGFRβ (Homo sapiens, UniProt P09619); experiment: Off-chip Mobility Shift Assay, kinase inhibition; format: biochemical; settings: at 10 nM; recombinant PDGFRβ; read-out: inhibition
# T1 construct: purchased Carna Biosciences, Inc
# LCK = biological target: T2, LCK (Homo sapiens, UniProt P06239); experiment: Off-chip Mobility Shift Assay, kinase inhibition; format: biochemical; settings: recombinant LCK; for inhibition at 0.001 µM: at 1 nM; for inhibition at 0.01 µM: at 10 nM
# T2 construct: purchased Carna Biosciences, Inc
# T2 sequence (P06239 whole entry): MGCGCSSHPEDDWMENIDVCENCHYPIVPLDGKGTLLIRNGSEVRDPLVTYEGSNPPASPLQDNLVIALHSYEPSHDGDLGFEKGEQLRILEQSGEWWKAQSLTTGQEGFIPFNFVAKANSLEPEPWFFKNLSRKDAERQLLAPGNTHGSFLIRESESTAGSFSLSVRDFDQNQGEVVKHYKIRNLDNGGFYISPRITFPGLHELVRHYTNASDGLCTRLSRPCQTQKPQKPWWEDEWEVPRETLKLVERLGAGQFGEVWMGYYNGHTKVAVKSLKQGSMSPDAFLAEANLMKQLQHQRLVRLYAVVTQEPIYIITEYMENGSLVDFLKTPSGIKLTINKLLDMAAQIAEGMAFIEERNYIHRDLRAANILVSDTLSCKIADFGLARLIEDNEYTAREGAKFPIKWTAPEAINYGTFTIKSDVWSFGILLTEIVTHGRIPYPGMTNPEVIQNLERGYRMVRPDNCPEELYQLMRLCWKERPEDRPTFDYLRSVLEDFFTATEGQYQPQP
# BTK = biological target: T3, BTK (Homo sapiens, UniProt Q06187); experiment: Off-chip Mobility Shift Assay, kinase inhibition; format: biochemical; settings: recombinant BTK; for inhibition at 0.001 µM: at 1 nM; for inhibition at 0.01 µM: at 10 nM
# T3 construct: purchased Carna Biosciences, Inc
# FGR = biological target: T4, FGR (Homo sapiens, UniProt P09769); experiment: Off-chip Mobility Shift Assay, kinase inhibition; format: biochemical; settings: at 10 nM; recombinant FGR; read-out: inhibition
# T4 construct: purchased Carna Biosciences, Inc
# T4 sequence (P09769 whole entry): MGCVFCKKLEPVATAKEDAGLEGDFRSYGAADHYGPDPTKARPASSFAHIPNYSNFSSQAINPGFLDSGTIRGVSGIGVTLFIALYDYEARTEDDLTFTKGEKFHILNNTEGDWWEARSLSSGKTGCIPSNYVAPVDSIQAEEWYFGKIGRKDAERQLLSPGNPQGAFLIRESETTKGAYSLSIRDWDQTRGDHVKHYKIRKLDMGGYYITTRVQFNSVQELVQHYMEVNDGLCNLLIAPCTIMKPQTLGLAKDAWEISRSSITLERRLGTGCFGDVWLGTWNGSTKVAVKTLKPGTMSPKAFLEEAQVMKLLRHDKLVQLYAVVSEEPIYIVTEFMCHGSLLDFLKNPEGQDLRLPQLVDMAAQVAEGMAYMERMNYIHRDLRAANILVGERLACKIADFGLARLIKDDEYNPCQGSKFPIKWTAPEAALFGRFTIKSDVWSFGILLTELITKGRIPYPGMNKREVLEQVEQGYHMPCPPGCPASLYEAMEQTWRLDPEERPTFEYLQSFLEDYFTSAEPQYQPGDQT
# ABL(E255K) = biological target: T5, ABL(E255K) (Homo sapiens, UniProt P00519, E255K); experiment: Off-chip Mobility Shift Assay, kinase inhibition; format: biochemical; settings: recombinant ABL(E255K); for inhibition at 0.001 µM: at 1 nM; for inhibition at 0.01 µM: at 10 nM
# T5 construct: purchased Carna Biosciences, Inc
# T5 sequence (P00519 whole entry E255K): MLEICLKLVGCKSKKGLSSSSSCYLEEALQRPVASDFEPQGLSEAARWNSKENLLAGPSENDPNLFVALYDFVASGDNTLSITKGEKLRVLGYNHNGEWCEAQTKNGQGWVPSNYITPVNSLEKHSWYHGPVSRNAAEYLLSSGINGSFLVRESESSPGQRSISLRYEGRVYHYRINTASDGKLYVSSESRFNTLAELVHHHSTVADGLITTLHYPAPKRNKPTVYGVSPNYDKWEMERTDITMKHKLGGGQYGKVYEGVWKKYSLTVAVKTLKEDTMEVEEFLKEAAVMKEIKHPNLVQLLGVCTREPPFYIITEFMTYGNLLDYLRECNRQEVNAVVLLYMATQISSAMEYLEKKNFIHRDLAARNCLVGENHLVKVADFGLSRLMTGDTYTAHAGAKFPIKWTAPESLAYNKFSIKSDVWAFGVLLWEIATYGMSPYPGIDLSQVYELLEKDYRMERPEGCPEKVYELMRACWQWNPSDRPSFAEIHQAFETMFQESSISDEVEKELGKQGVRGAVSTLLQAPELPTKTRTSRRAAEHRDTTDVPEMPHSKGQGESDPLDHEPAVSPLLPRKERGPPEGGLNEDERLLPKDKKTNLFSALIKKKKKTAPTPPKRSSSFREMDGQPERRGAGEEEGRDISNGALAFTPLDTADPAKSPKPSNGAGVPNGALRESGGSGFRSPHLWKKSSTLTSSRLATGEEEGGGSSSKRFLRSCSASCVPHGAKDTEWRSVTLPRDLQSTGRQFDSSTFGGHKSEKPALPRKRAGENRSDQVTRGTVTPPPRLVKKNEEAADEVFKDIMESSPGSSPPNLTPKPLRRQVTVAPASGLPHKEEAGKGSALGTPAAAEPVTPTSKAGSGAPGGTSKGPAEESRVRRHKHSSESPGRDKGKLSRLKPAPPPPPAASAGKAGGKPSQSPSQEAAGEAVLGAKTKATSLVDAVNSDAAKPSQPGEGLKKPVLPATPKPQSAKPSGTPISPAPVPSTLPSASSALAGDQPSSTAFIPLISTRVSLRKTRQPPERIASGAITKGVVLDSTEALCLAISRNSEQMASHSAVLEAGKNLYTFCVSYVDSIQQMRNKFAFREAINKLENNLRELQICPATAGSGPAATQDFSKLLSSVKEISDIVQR
# FRK = biological target: T6, FRK (Homo sapiens, UniProt P42685); experiment: Off-chip Mobility Shift Assay, kinase inhibition; format: biochemical; settings: at 10 nM; recombinant FRK
# T6 construct: purchased Carna Biosciences, Inc
# DDR2 = biological target: T7, DDR2 (Homo sapiens, UniProt Q16832); experiment: Off-chip Mobility Shift Assay, kinase inhibition; format: biochemical; settings: at 10 nM; recombinant DDR2; read-out: inhibition
# T7 construct: purchased Carna Biosciences, Inc
# T7 sequence (Q16832 22-855): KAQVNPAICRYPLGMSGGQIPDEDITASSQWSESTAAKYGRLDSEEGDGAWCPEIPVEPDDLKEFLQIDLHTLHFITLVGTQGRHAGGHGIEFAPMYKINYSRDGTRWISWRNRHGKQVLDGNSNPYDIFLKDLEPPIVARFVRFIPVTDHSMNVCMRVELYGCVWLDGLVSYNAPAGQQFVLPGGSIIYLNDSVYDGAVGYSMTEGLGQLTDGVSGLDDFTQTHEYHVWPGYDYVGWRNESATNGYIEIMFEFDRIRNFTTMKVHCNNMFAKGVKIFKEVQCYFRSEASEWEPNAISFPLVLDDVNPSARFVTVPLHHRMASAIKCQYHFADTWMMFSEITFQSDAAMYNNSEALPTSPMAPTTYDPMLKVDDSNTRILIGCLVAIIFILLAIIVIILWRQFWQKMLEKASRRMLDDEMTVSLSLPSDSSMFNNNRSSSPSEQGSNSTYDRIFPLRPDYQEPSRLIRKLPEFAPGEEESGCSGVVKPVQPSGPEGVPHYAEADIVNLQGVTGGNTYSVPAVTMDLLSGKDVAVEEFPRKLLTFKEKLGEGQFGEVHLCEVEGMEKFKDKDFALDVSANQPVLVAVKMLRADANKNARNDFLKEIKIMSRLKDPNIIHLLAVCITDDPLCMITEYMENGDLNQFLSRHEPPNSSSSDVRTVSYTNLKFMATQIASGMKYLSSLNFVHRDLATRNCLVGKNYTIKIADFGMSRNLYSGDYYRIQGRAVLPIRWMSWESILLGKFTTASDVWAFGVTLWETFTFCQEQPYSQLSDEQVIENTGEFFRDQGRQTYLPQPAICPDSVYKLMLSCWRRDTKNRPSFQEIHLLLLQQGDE
# PIK3CA/PIK3R1 = biological target: T8, PIK3CA/PIK3R1 (Homo sapiens, UniProt P42336); experiment: Off-chip Mobility Shift Assay, kinase inhibition; format: biochemical; settings: at 10 nM; recombinant PIK3CA/PIK3R1
# T8 construct: purchased Carna Biosciences, Inc
# T8 sequence (P42336 whole entry): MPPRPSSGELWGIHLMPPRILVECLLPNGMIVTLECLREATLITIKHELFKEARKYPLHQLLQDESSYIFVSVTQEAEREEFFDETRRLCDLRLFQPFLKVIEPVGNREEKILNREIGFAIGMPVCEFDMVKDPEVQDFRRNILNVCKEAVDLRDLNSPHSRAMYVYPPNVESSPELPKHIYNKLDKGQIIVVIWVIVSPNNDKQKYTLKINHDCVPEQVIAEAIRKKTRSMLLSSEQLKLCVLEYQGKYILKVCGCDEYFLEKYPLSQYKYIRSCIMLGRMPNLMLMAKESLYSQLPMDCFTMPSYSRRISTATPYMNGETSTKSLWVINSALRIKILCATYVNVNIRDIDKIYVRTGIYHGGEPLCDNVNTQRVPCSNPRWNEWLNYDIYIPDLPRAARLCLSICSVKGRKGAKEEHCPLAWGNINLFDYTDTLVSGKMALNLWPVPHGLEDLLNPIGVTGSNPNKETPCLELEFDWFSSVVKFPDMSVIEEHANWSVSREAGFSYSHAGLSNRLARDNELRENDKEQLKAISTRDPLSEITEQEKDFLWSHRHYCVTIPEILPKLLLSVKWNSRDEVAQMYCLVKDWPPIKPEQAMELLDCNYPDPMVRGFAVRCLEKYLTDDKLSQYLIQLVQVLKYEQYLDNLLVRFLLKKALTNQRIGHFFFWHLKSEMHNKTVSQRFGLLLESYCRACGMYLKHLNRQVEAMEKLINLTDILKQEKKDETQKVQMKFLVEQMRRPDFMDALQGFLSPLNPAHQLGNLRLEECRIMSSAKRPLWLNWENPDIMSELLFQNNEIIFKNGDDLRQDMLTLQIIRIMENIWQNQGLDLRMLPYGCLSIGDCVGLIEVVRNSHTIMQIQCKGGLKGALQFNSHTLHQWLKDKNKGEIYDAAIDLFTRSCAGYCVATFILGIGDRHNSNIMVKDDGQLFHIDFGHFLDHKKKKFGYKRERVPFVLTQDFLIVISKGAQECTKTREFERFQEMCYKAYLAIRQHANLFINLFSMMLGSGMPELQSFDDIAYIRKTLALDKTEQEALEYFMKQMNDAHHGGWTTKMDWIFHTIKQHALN
# T8 sequence (P27986 whole entry partner): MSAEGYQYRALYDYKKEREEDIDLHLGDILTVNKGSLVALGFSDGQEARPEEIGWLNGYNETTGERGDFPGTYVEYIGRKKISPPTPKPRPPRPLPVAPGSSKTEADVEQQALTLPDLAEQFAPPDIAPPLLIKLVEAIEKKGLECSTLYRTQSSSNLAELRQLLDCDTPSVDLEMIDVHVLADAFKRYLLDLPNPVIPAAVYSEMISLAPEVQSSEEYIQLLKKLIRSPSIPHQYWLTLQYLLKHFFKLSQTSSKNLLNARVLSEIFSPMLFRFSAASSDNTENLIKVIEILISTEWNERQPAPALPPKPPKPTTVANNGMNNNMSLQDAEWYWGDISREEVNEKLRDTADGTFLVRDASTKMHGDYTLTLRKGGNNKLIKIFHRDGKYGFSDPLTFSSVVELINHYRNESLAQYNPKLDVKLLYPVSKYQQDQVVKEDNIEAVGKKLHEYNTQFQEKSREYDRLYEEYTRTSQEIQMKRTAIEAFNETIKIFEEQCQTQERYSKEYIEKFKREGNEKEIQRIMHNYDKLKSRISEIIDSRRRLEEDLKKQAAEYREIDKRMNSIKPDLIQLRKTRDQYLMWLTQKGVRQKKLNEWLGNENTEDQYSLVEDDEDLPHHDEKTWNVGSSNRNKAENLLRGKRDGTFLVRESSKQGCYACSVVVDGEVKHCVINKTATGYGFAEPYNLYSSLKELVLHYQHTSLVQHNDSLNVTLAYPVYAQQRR
# ARG = biological target: T9, ARG (Homo sapiens, UniProt P42684); experiment: Off-chip Mobility Shift Assay, kinase inhibition; format: biochemical; settings: at 10 nM; recombinant ARG; read-out: inhibition
# T9 construct: purchased Carna Biosciences, Inc
# HCK = biological target: T10, HCK (Homo sapiens, UniProt P08631); experiment: Off-chip Mobility Shift Assay, kinase inhibition; format: biochemical; settings: recombinant HCK; for inhibition at 0.001 µM: at 1 nM; for inhibition at 0.01 µM: at 10 nM, read-out: inhibition
# T10 construct: purchased Carna Biosciences, Inc
# SRC = biological target: T11, SRC (Homo sapiens, UniProt P12931); experiment: Off-chip Mobility Shift Assay, kinase inhibition; format: biochemical; settings: recombinant SRC; for inhibition at 0.001 µM: at 1 nM; for inhibition at 0.01 µM: at 10 nM
# T11 construct: purchased Carna Biosciences, Inc
# SU-DHL-4 = experiment: Cell inhibition assay (PrestoBlue, 48 h); format: cell-based; settings: Homo sapiens, SU-DHL-4, 48 h, SU-DHL-4 diffuse large B-cell lymphoma cells, read-out: IC50, inhibition of growth
# FMS = biological target: T12, FMS (Homo sapiens, UniProt P07333); experiment: Off-chip Mobility Shift Assay, kinase inhibition; format: biochemical; settings: at 10 nM; recombinant FMS
# T12 construct: purchased Carna Biosciences, Inc
# T12 sequence (P07333 20-972): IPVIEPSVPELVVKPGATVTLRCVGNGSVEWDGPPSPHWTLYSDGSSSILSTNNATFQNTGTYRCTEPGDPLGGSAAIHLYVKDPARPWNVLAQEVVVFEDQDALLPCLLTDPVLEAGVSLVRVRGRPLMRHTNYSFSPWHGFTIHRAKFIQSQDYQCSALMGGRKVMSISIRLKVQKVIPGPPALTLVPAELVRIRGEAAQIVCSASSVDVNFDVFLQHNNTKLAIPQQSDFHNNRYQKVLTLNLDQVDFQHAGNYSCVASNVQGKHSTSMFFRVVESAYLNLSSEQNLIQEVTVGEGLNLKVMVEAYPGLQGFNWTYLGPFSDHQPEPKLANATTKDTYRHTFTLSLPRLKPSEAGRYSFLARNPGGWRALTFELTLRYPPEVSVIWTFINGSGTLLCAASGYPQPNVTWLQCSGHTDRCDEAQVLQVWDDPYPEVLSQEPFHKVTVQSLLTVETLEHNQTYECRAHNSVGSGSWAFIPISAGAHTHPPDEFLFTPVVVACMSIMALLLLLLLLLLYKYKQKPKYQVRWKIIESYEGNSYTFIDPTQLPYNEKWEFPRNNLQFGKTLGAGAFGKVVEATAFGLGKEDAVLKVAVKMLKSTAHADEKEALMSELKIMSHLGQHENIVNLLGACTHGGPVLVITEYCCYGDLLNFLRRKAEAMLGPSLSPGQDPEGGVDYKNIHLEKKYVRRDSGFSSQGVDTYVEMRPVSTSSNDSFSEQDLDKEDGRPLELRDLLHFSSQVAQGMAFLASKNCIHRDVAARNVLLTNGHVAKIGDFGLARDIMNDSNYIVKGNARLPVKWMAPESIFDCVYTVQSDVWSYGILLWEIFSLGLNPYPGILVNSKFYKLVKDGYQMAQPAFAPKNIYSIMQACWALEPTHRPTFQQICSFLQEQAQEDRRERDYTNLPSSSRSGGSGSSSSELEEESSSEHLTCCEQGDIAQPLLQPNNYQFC
# FYN(isoform a) = biological target: T13, FYN(isoform a) (Homo sapiens, UniProt P06241); experiment: Off-chip Mobility Shift Assay, kinase inhibition; format: biochemical; settings: at 10 nM; recombinant FYN(isoform a)
# T13 construct: purchased Carna Biosciences, Inc
# EPHA1 = biological target: T14, EPHA1 (Homo sapiens, UniProt P21709); experiment: Off-chip Mobility Shift Assay, kinase inhibition; format: biochemical; settings: at 10 nM; recombinant EPHA1
# T14 construct: purchased Carna Biosciences, Inc
# T14 sequence (P21709 26-976): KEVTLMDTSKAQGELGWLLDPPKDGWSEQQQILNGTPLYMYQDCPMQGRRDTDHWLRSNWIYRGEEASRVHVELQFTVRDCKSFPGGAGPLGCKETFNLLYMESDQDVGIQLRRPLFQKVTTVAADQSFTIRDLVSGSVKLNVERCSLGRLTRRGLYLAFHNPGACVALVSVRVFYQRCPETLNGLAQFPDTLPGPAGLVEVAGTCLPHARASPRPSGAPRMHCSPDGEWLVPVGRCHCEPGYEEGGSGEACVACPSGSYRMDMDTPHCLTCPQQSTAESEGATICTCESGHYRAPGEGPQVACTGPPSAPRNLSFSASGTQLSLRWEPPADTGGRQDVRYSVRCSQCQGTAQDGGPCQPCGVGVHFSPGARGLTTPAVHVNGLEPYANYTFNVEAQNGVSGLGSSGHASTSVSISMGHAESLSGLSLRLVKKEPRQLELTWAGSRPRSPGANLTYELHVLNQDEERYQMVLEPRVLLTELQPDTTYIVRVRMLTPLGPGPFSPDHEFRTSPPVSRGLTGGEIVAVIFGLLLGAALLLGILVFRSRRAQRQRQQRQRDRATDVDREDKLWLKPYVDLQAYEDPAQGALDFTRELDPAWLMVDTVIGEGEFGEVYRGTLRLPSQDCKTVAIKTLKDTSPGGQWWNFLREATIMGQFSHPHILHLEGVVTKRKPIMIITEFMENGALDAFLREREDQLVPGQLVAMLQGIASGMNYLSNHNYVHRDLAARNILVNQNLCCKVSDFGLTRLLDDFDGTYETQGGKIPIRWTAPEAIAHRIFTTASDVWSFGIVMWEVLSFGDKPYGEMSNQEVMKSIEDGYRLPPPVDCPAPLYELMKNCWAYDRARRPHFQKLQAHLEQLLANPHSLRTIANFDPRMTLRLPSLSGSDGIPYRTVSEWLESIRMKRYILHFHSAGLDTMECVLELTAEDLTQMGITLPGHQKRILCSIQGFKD
Compound,inhibition at 0.01 µM (PDGFRβ) [%],inhibition at 0.001 µM (LCK) [%],inhibition at 0.01 µM (LCK) [%],inhibition at 0.001 µM (BTK) [%],inhibition at 0.01 µM (BTK) [%],inhibition at 0.01 µM (FGR) [%],inhibition at 0.001 µM (ABL(E255K)) [%],inhibition at 0.01 µM (ABL(E255K)) [%],inhibition at 0.01 µM (FRK) [%],inhibition at 0.01 µM (DDR2) [%],inhibition at 0.01 µM (PIK3CA/PIK3R1) [%],inhibition at 0.01 µM (ARG) [%],inhibition at 0.001 µM (HCK) [%],inhibition at 0.01 µM (HCK) [%],inhibition at 0.001 µM (SRC) [%],inhibition at 0.01 µM (SRC) [%],IC50 (SU-DHL-4) [nM],inhibition at 0.01 µM (FMS) [%],inhibition at 0.01 µM (FYN(isoform a)) [%],inhibition at 0.01 µM (EPHA1) [%]
"Cc1nc(Nc2ncc(C(=O)Nc3c(C)cccc3Cl)s2)cc(N2CC[C@H](O)C2)n1 [Compound X, N-(2-chloro-6-methylphenyl)-2-[[2-methyl-6-((S)-3-hydroxypyrrolidin-1-yl)pyrimidin-4-yl]amino]thiazole-5-carboxamide]",> 50,> 50,> 50,> 50,> 50,> 50,> 50,> 50,> 50,> 50,> 50,> 50,> 50,> 50,> 50,> 50,< 20,> 50,> 50,> 50
"Cc1nc(Nc2ncc(C(=O)Nc3c(C)cccc3Cl)s2)cc(N2CC[C@@H](O)C2)n1 [Compound XI, N-(2-chloro-6-methylphenyl)-2-[[2-methyl-6-((R)-3-hydroxypyrrolidin-1-yl)pyrimidin-4-yl]amino]thiazole-5-carboxamide]",> 50,> 50,> 50,> 50,> 50,> 50,> 50,> 50,> 50,> 50,> 50,> 50,> 50,> 50,> 50,> 50,< 20,> 50,> 50,> 50
"Cc1nc(Nc2ncc(C(=O)Nc3c(C)cccc3Cl)s2)cc(N2CC[C@H](N)C2)n1 [Compound XII, N-(2-chloro-6-methylphenyl)-2-[[2-methyl-6-((S)-3-aminopyrrolidin-1-yl)pyrimidin-4-yl]amino]thiazole-5-carboxamide]",> 50,> 50,> 50,> 50,> 50,> 50,> 50,> 50,> 50,> 50,> 50,> 50,> 50,> 50,> 50,> 50,< 20,> 50,> 50,> 50
